The source of these data is ChEMBL document CHEMBL3085687, “Gymnopalynes A and B, chloropropynyl-isocoumarin antibiotics from cultures of the basidiomycete Gymnopus sp” (J Nat Prod, 2013).

≈ marks a conversion by molar mass, not a printed value. Calls of active or inactive are those of the source. The rule behind the calls is not given here.

For assay [1], the system named is Mycolicibacterium diernhoferi. In words: Antibacterial activity against Mycobacterium diernhoferi DSM 43524 assessed as growth inhibition up to 66.6 ug/mL. The class given is functional, organism-based.
The test system of assay [2] is Escherichia coli. Description: Antibacterial activity against Escherichia coli DSM 1116 assessed as growth inhibition up to 66.6 ug/mL. It counts as functional, organism-based.
Assay [3] has as its system Pseudomonas aeruginosa. In words: Antibacterial activity against Pseudomonas aeruginosa DSM 50071 assessed as growth inhibition up to 66.6 ug/mL. It counts as functional, organism-based.
A short description of assay [4]: Antifungal activity against Trichosporon oleaginosus DSM 11815 assessed as growth inhibition up to 66.6 ug/mL. The class given is functional. The note with it: Cutaneotrichosporon oleaginosum.
A further assay relates to L929. In words: Cytotoxicity against mouse L929 cells. The class given is cell-based.
Assay [5] has as its system Pimelobacter simplex. Description: Antibacterial activity against Nocardioides simplex DSM 20130 assessed as growth inhibition up to 66.6 ug/mL. The class given is functional.
The nature of assay [6]: Antifungal activity against Penicillium capsulatum DSM 2210 assessed as growth inhibition up to 66.6 ug/mL. The class given is functional.
For assay [7], the system named is Schizosaccharomyces pombe. Description: Antifungal activity against Schizosaccharomyces pombe DSM 70572 assessed as growth inhibition up to 66.6 ug/mL. The class given is functional, organism-based.
In assay [8] the test system is Eremothecium coryli. In words: Antifungal activity against Nematospora coryli DSM 6981 assessed as growth inhibition up to 66.6 ug/mL. It counts as functional, organism-based.
In a further assay the test system is Mucor hiemalis. In words: Antifungal activity against Mucor hiemalis DSM 2656 assessed as growth inhibition. It counts as functional.
Assay [9] deals with Nocardia sp. Description: Antibacterial activity against Nocardia sp. DSM 43069 assessed as growth inhibition up to 66.6 ug/mL. It counts as functional, organism-based.
Assay [10] relates to Paenibacillus polymyxa. In words: Antibacterial activity against Paenibacillus polymyxa DSM 36 assessed as growth inhibition up to 66.6 ug/mL. The class given is functional.
The subject of assay [11] is Aspergillus clavatus. Description: Antifungal activity against Aspergillus clavatus DSM 816 assessed as growth inhibition up to 66.6 ug/mL. It counts as functional, organism-based.
The test system of assay [12] is Rhodotorula glutinis. In words: Antifungal activity against Rhodotorula glutinis DSM 10134 assessed as growth inhibition up to 66.6 ug/mL. It counts as functional, organism-based.
For assay [13], the system named is Chromobacterium violaceum. Description: Antibacterial activity against Chromobacterium violaceum DSM 30191 assessed as growth inhibition. It counts as functional.
Assay [14] has as its system Micrococcus luteus. In words: Antibacterial activity against Micrococcus luteus DSM 20030 assessed as growth inhibition up to 66.6 ug/mL. It counts as functional, organism-based. The note with it: NCTC 2665.
Assay [15] concerns Amorphotheca resinae. Description: Antifungal activity against Hormoconis resinae DSM 1203 assessed as growth inhibition up to 66.6 ug/mL. It counts as functional, organism-based.
Assay [16] relates to Wickerhamomyces anomalus. In words: Antifungal activity against Pichia anomala DSM 6766 assessed as growth inhibition up to 66.6 ug/mL. The class given is functional, organism-based.
Assay [17] deals with Candida albicans. In words: Antifungal activity against Candida albicans DSM 1665 assessed as growth inhibition up to 66.6 ug/mL. It counts as functional, organism-based.
In assay [18] the test system is Staphylococcus aureus. In words: Antibacterial activity against Staphylococcus aureus DSM 346 assessed as growth inhibition up to 66.6 ug/mL. The class given is functional, organism-based.
Assay [19] deals with Pseudomonas aeruginosa. Description: Antibacterial activity against Pseudomonas aeruginosa DSM 50071 assessed as growth inhibition. It counts as functional.
Assay [20] concerns Nocardia sp. Description: Antibacterial activity against Nocardia sp. DSM 43069 assessed as growth inhibition. It counts as functional.
Assay [21] deals with Rhodotorula glutinis. In words: Antifungal activity against Rhodotorula glutinis DSM 10134 assessed as growth inhibition. The class given is functional.
A short description of assay [22]: Antifungal activity against Trichosporon oleaginosus DSM 11815 assessed as growth inhibition. It counts as functional. The note with it: Cutaneotrichosporon oleaginosum.
In assay [23] the test system is Amorphotheca resinae. In words: Antifungal activity against Hormoconis resinae DSM 1203 assessed as growth inhibition. It counts as functional.
Assay [24] relates to Pimelobacter simplex. Description: Antibacterial activity against Nocardioides simplex DSM 20130 assessed as growth inhibition. The class given is functional.
For assay [25], the system named is Schizosaccharomyces pombe. In words: Antifungal activity against Schizosaccharomyces pombe DSM 70572 assessed as growth inhibition. The class given is functional.
Assay [26] concerns Aspergillus clavatus. Description: Antifungal activity against Aspergillus clavatus DSM 816 assessed as growth inhibition. The class given is functional.
Assay [27] deals with Eremothecium coryli. Description: Antifungal activity against Nematospora coryli DSM 6981 assessed as growth inhibition. The class given is functional.
Assay [28] concerns Paenibacillus polymyxa. Description: Antibacterial activity against Paenibacillus polymyxa DSM 36 assessed as growth inhibition. It counts as functional.
The subject of assay [29] is Micrococcus luteus. In words: Antibacterial activity against Micrococcus luteus DSM 20030 assessed as growth inhibition. It counts as functional. The note with it: NCTC 2665.
Assay [30] has as its system Staphylococcus aureus. Description: Antibacterial activity against Staphylococcus aureus DSM 346 assessed as growth inhibition. It counts as functional.
For assay [31], the system named is Escherichia coli. Description: Antibacterial activity against Escherichia coli DSM 1116 assessed as growth inhibition. The class given is functional.
Assay [32] deals with Mycolicibacterium diernhoferi. In words: Antibacterial activity against Mycobacterium diernhoferi DSM 43524 assessed as growth inhibition. It counts as functional.
Assay [33] can be described thus: Antifungal activity against Penicillium capsulatum DSM 2210 assessed as growth inhibition. It counts as functional.
In assay [34] the test system is Wickerhamomyces anomalus. Description: Antifungal activity against Pichia anomala DSM 6766 assessed as growth inhibition. It counts as functional, organism-based.
Assay [35] concerns Candida albicans. Description: Antifungal activity against Candida albicans DSM 1665 assessed as growth inhibition. The class given is functional, organism-based.

A word on the IC50: it is the point on the concentration scale where inhibition reaches its midpoint. A high value points to weaker potency in that assay. What is called MIC is the least concentration at which growth counts as inhibited. On to `O=C1O[C@H](C#CCCl)Cc2ccccc21`, for which the “growth inhibition (GI)” value (in [1]; in the assay with Escherichia coli [2]; in the assay with Pseudomonas aeruginosa [3]; in assay [4]; in the assay on Pimelobacter simplex [5]; in assay [6]) was “inactive” in each case. For the same compound, the “growth inhibition (GI)” value (in assay [7]; in the assay on Eremothecium coryli [8]; with Nocardia sp. [9]; in the assay on Paenibacillus polymyxa [10]; in the assay with Aspergillus clavatus [11]; with Rhodotorula glutinis [12]) was “inactive” in each case. The “growth inhibition (GI)” value in the assay with Micrococcus luteus [14], in the assay with Amorphotheca resinae [15], with Wickerhamomyces anomalus [16], with Candida albicans [17] and in the assay on Staphylococcus aureus [18] was “inactive” each time. In the assay on L929, half-maximal inhibition (IC50) required 14 µM. Also, the minimal inhibitory concentration (MIC) (in the assay with Mucor hiemalis; in assay [13]) was 33.3 µg/mL (≈ 151 µM) throughout.
With GENTAMICIN, the MIC in the assay with Pseudomonas aeruginosa [19] came to 67 µg/mL.
As to `O=c1oc(C#CCCl)cc2ccccc12`, the “growth inhibition (GI)” value (in [1]; in the assay with Escherichia coli [2]; in [6]; with Paenibacillus polymyxa [10]; in the assay on Micrococcus luteus [14]; with Wickerhamomyces anomalus [16]) was “inactive” in each case. The “growth inhibition (GI)” value in the assay on Candida albicans [17] and in the assay with Staphylococcus aureus [18] was “inactive” each time. For the same compound, the MIC with Nocardia sp. [20] came out at 67 µg/mL (≈ 306 µM); in the assay with Rhodotorula glutinis [21] it was 33.3 µg/mL (≈ 152 µM); in the assay on Mucor hiemalis it was 16.6 µg/mL (≈ 75.9 µM); in [22], 33.3 µg/mL (≈ 152 µM); with Amorphotheca resinae [23], 33.3 µg/mL (≈ 152 µM); in the assay with Pimelobacter simplex [24], 33.3 µg/mL (≈ 152 µM). The MIC was 16.6 µg/mL (≈ 75.9 µM) in [25]; 33.3 µg/mL (≈ 152 µM) in assay [13]; 67 µg/mL (≈ 306 µM) in the assay on Pseudomonas aeruginosa [19]; 16.6 µg/mL (≈ 75.9 µM) in the assay on Aspergillus clavatus [26]; 16.6 µg/mL (≈ 75.9 µM) in the assay on Eremothecium coryli [27]. This compound yielded an IC50 in the assay on L929 of 3.7 µM.
For `CN(C)[C@@H]1C(O)=C(C(N)=O)C(=O)[C@@]2(O)C(O)=C3C(=O)c4c(O)cccc4[C@@](C)(O)[C@H]3[C@H](O)[C@@H]12.Cl` [OXYTETRACYCLINE HYDROCHLORIDE], the minimal inhibitory concentration (MIC) in the assay on Nocardia sp. [20] is 0.25 µg/mL; in the assay on Paenibacillus polymyxa [28] it was 6.7 µg/mL; with Micrococcus luteus [29], 2.1 µg/mL; with Pimelobacter simplex [24], 16.6 µg/mL; in [13], 1 µg/mL; in the assay with Staphylococcus aureus [30], at most 0.25 µg/mL. Also, the results for the MIC (with Escherichia coli [31]; in assay [32]) were 1 µg/mL and at most 0.25 µg/mL, respectively.
On to NYSTATIN, for which the MIC was 0.52 µg/mL in the assay with Rhodotorula glutinis [21]; 2.1 µg/mL in the assay on Mucor hiemalis; 1 µg/mL in [22]; under 0.25 µg/mL in the assay on Amorphotheca resinae [23]; 33.3 µg/mL in assay [25]; 16.6 µg/mL in assay [33]. Besides, the MIC in the assay with Wickerhamomyces anomalus [34] worked out at 4.2 µg/mL; with Candida albicans [35], 4.2 µg/mL; in the assay with Aspergillus clavatus [26], 2.1 µg/mL; in the assay on Eremothecium coryli [27] it was 3.3 µg/mL.
